Experimental data reported in ChEMBL document CHEMBL3886771, “Cyclopropanecarboxamido-substitute aromatic compounds as anti-tumor agents” (2016).

Biological target: Vascular endothelial growth factor receptor 2 (Homo sapiens, UniProt P35968)
Experiment: Inhibition Assay: [Experimental method]: Use Lance@Ultra Ulight™-TK assay kit from PerKinElmer to evaluate the inhibitory activity of compounds at KDR kinase. [Instrument]: PerKinElmer's ENVISION plate reader. [Materials]: Optiplate-384 well plate (PerKinElmer), kinase buffer (50 mM Hepes pH7.5, 0.25 mM EGTA, 2 mM DTT, 0.01% Tween 20, 10 mM Mg2+, 0.5 mM Mn2+), KDR kinase (790-1356 AA, Crown Bioscience), KDR kinase substrate (PerKinElmer catalogue # TRF0127-M), Lance@Eu-W1024-anti-phosphotyrosine (PT66) (PerKinElmer, catalogue #AD0068), ATP (Invitrogen), DMSO (Sigma, catalogue #34869), purified water (Millipore, type: Milli-Q). [Study conditions]: Mix KDR (final concentration: 20 nM) and compound (final DMSO: 0.5%), pre-incubate for 20 min at 30° C.; then add ATP (final concentration: 90 μM) and the substrate (final concentration 50 μM). React for 2 hrs at 30° C. After the reaction, add antibody and reaction for 60 min at 30° C. Read the plate (615 nm, 665 nm), calculate the ratio of the value at 665 nm vs 615 nm and analyze the data.

Vascular endothelial growth factor receptor 2, sequence (P35968 whole entry, the tested form may be a part): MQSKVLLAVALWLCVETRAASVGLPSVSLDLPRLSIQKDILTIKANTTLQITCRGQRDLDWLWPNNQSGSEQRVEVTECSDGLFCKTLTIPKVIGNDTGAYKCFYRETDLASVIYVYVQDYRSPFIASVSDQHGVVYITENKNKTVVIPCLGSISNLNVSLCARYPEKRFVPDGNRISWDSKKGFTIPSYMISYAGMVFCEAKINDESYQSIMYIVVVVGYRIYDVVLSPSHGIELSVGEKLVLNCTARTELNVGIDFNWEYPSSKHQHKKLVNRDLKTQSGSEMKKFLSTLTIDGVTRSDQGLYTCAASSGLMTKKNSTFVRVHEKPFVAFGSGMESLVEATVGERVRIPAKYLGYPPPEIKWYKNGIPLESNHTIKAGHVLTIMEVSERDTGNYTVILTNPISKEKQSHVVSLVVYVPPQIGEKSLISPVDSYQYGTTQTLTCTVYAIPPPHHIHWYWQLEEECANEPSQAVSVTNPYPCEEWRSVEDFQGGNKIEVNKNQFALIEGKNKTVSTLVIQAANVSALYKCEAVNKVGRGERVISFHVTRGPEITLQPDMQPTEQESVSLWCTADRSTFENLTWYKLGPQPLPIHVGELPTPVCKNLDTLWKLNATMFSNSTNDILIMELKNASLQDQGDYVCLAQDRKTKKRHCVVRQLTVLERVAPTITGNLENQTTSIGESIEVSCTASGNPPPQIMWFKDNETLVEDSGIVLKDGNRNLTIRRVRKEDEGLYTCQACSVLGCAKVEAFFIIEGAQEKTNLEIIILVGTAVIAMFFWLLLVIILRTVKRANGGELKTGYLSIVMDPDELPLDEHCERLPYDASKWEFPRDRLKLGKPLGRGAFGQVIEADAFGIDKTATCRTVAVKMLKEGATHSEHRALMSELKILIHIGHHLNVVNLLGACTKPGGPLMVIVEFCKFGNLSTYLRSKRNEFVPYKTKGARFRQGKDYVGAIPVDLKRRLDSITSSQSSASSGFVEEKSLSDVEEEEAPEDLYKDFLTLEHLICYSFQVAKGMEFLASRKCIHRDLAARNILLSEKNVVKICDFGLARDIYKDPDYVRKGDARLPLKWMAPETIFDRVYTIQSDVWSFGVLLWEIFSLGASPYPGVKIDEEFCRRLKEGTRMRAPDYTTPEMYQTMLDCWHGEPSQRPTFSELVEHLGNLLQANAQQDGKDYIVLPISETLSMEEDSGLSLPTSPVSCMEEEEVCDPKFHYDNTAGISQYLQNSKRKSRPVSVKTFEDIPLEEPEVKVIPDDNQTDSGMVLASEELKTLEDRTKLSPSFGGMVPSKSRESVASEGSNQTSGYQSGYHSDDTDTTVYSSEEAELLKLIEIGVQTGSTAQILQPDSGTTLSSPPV

Question: With `O=C(Nc1ccc(Oc2ccnc(NC(=O)C3CC3)c2)c(F)c1)Nc1ccc(Cl)c(C(F)(F)F)c1` as the compound, how does the IC50 read?
Answer: 11.5 nM

Question: Which IC50 does the source give for `CC(c1cc(NC(=O)Nc2ccc(Oc3ccnc(NC(=O)C4CC4)c3)c(F)c2)cc(C(F)(F)F)c1)N1CCNCC1` (configuration not stated) here?
Answer: 26.6 nM
